In ChEMBL document CHEMBL3232922, “Discovery and SAR of 6-alkyl-2,4-diaminopyrimidines as histamine H₄ receptor antagonists” (J Med Chem, 2014):
Blank lines part the entries; values can stand above or below the compound they belong to.

What was measured:
Histamine H4 receptor [1] = target: T1, Histamine H4 receptor (Homo sapiens, UniProt Q9H3N8); assay: Displacement of [3H]histamine from human recombinant histamine H4 receptor expressed in SK-N-MC cells after 45 mins by competition binding analysis; type: cell-based
Rattus norvegicus [2] = assay: Clearance in Sprague-Dawley rat at 2 mg/kg, iv; type: ADME, organism-based; parameters: dose 2 mg/kg, route intravenous; details: in vivo
Histamine H4 receptor [3] = target: T1, Histamine H4 receptor; assay: Agonist activity at human H4 receptor; details: read-out: EC50
[4] = Oral bioavailability in beagle dog at 10 mg/kg; type: ADME, organism-based, Canis lupus familiaris; details: in vivo
[5] = Oral bioavailability in Sprague-Dawley rat at 10 mg/kg; type: ADME, organism-based; details: in vivo
[6] = AUC in Sprague-Dawley rat at 10 mg/kg, po; type: ADME, organism-based; parameters: dose 10 mg/kg, route oral; details: plasma
Histamine H4 receptor [7] = target: T1, Histamine H4 receptor; assay: Antagonist activity at human histamine H4 receptor expressed in SK-N-MC cells assessed as reduction of histamine-induced inhibition of cAMP-mediated beta-galactosidase reporter gene activity treated 10 mins prior to histamine challenge by microplate reader analysis; type: functional, cell-based; details: read-out: pA2 (converted)
[8] = AUC in Sprague-Dawley rat at 2 mg/kg, iv; type: ADME, organism-based; parameters: dose 2 mg/kg, route intravenous; details: plasma
Rattus norvegicus [9] = assay: Volume of distribution at steady state in Sprague-Dawley rat at 2 mg/kg, iv; type: ADME, organism-based; parameters: dose 2 mg/kg, route intravenous; details: in vivo
[10] = Volume of distribution at steady state in beagle dog at 2 mg/kg, iv; type: ADME, organism-based, Canis lupus familiaris; parameters: dose 2 mg/kg, route intravenous; details: in vivo, read-out: Vdss
[11] = Initial plasma concentration in beagle dog at 2 mg/kg, iv; type: ADME, organism-based, Canis lupus familiaris; parameters: dose 2 mg/kg, route intravenous
[12] = Initial plasma concentration in Sprague-Dawley rat at 2 mg/kg, iv; type: ADME, organism-based; parameters: dose 2 mg/kg, route intravenous
[13] = Half life in Balb/c mouse at 20 mg/kg, po; type: ADME, organism-based; parameters: dose 20 mg/kg, route oral; details: in vivo
[14] = Cmax in Balb/c mouse at 20 mg/kg, po; type: ADME, organism-based; parameters: dose 20 mg/kg, route oral; details: in vivo
[15] = Cmax in Sprague-Dawley rat at 10 mg/kg, po; type: ADME, organism-based; parameters: dose 10 mg/kg, route oral; details: in vivo
Rattus norvegicus [16] = assay: Half life in Sprague-Dawley rat at 2 mg/kg, iv; type: ADME, organism-based; parameters: dose 2 mg/kg, route intravenous; details: in vivo
Canis familiaris = assay: AUC in beagle dog at 2 mg/kg, iv; type: ADME, organism-based, Canis lupus familiaris, Plasma; parameters: dose 2 mg/kg, route intravenous; details: in vivo
[17] = AUC in Balb/c mouse at 20 mg/kg, po; type: ADME, organism-based; parameters: dose 20 mg/kg, route oral; details: plasma
[18] = Tmax in Sprague-Dawley rat at 10 mg/kg, po; type: ADME, organism-based; parameters: dose 10 mg/kg, route oral; details: in vivo
[19] = Half life in beagle dog at 2 mg/kg, iv; type: ADME, organism-based, Canis lupus familiaris; parameters: dose 2 mg/kg, route intravenous; details: in vivo
[20] = Half life in Sprague-Dawley rat at 10 mg/kg, po; type: ADME, organism-based; parameters: dose 10 mg/kg, route oral; details: in vivo
[21] = Cmax in beagle dog at 10 mg/kg, po; type: ADME, organism-based, Canis lupus familiaris; parameters: dose 10 mg/kg, route oral; details: in vivo
[22] = AUC in beagle dog at 10 mg/kg, po; type: ADME, organism-based, Canis lupus familiaris; parameters: dose 10 mg/kg, route oral; details: plasma
[23] = Half life in beagle dog at 10 mg/kg, po; type: ADME, organism-based, Canis lupus familiaris; parameters: dose 10 mg/kg, route oral; details: in vivo
[24] = Tmax in beagle dog at 10 mg/kg, po; type: ADME, organism-based, Canis lupus familiaris; parameters: dose 10 mg/kg, route oral; details: in vivo
[25] = Tmax in Balb/c mouse at 20 mg/kg, po; type: ADME, organism-based; parameters: dose 20 mg/kg, route oral; details: in vivo

Compound: CN1CCN(c2ncnc3c2oc2ccc(Cl)cc23)CC1
Ki (Histamine H4 receptor [1]): 5 nM

Compound: Nc1nc(Cc2ccccc2)cc(N2CC[C@@H](N)C2)n1
Ki (Histamine H4 receptor [1]): 100 nM

Compound: CN[C@@H]1CCN(c2cc(Cc3ccccc3)nc(N)n2)C1
CL (Rattus norvegicus [2]): 5.5 mL/min/kg
EC50 (Histamine H4 receptor [3]): > 10000 nM
bioavailability [4]: 112%
bioavailability [5]: 50%
AUC [6]: 27.8 µM·h
Kb (Histamine H4 receptor [7]): 10 nM
AUC [8]: 11 µM·h
Vdss (Rattus norvegicus [9]): 6.3 L/kg
Vd [10]: 15.1 L/kg
C0 [11]: 2.5 µM
C0 [12]: 19 µM
half-life [13]: 5.2 h
Cmax [14]: 8.5 µM
Cmax [15]: 1.6 µM
t1/2 (Rattus norvegicus [16]): 5.3 h
AUC (Canis familiaris): 8.1 µM·h
AUC [17]: 60 µM·h
Tmax [18]: 5 h
half-life [19]: 9.3 h
half-life [20]: 9.3 h
Cmax [21]: 4.2 µM
AUC [22]: 45 µM·h
half-life [23]: 10 h
Tmax [24]: 0.6 h
Tmax [25]: 0.5 h

Compound: CN1C[C@@H]2CN(c3cc(C4CCCC4)nc(N)n3)C[C@@H]2C1
EC50 (Histamine H4 receptor [3]): > 10000 nM
Kb (Histamine H4 receptor [7]): 20 nM

Compound: CN1CCN(C(=O)c2cc3c([nH]2)CCCC3)CC1
Ki (Histamine H4 receptor [1]): 20 nM

Compound: Nc1nc(C2CCCC2)cc(N2CC(N)C2)n1
EC50 (Histamine H4 receptor [3]): 1300 nM
Kb (Histamine H4 receptor [7]): 25.1 nM
Ki (Histamine H4 receptor [1]): 5.5 nM

Compound: CN1CCN(c2cc(C3CCCC3)nc(N)n2)CC1
EC50 (Histamine H4 receptor [3]): > 10000 nM
Kb (Histamine H4 receptor [7]): 0.126 nM
Ki (Histamine H4 receptor [1]): 1.4 nM

Compound: Nc1nc(C2CCCC2)cc(N2C[C@H]3CCN[C@H]3C2)n1
EC50 (Histamine H4 receptor [3]): > 10000 nM
Kb (Histamine H4 receptor [7]): 0.1 nM
Ki (Histamine H4 receptor [1]): 2.9 nM

Compound: Nc1nc(C2CCCC2)cc(N2C[C@H]3CCCN[C@H]3C2)n1
EC50 (Histamine H4 receptor [3]): > 10000 nM
Kb (Histamine H4 receptor [7]): < 0.1 nM
Ki (Histamine H4 receptor [1]): 1.8 nM

Compound: CN1CCN(C(=O)c2nc3cc(Cl)ccc3[nH]2)CC1
Ki (Histamine H4 receptor [1]): 20 nM

Compound: CN[C@@H]1CCN(c2cc(Cl)nc(N)n2)C1
Ki (Histamine H4 receptor [1]): > 10000 nM

Continued, values first:

EC50 (Histamine H4 receptor [3]): > 10000 nM
Kb (Histamine H4 receptor [7]): < 0.1 nM
Ki (Histamine H4 receptor [1]): 1.7 nM
Compound: CN[C@@H]1CCN(c2cc(C34CC5CC(CC(C5)C3)C4)nc(N)n2)C1

Ki (Histamine H4 receptor [1]): > 10000 nM
Compound: CN[C@@H]1CCN(c2cc(C(F)(F)F)nc(N)n2)C1

EC50 (Histamine H4 receptor [3]): > 10000 nM
Kb (Histamine H4 receptor [7]): 10 nM
Ki (Histamine H4 receptor [1]): 30 nM
Compound: CN[C@H]1CN(c2cc(C3CCCC3)nc(N)n2)C[C@@H]1O (relative stereo)

EC50 (Histamine H4 receptor [3]): > 10000 nM
Kb (Histamine H4 receptor [7]): 3.98 nM
Ki (Histamine H4 receptor [1]): 1.5 nM
Compound: CCCCc1cc(N2CC[C@@H](NC)C2)nc(N)n1

EC50 (Histamine H4 receptor [3]): > 10000 nM
Kb (Histamine H4 receptor [7]): 25.1 nM
Compound: CN[C@@H]1CCN(c2nc(N)nc3c2CCCC3)C1
